Entries after “also recorded” stand apart in the source; their conditions may differ.

For test [1], the system named is Na+-dependent glutamate transport. The test can be described thus: Na+-dependent [3H]-glutamate uptake in cultured astrocytes. Type of test: cell-based, rat. How it is done:
Primary astrocytes were plated in 6-well plates, as described above. […] Where indicated, 100 μM dihydrokainate (DHK) was added to wells for 10 minutes before the addition of the substrate. Subsequently, [^3H]-glutamate in Na^+ Krebs buffer or Na^+-free Krebs buffer (choline buffer) was added for 4 minutes at 37° C. The reaction was stopped by washing three times with ice cold buffer (0.05 M Tris/0.16 M NaCl, pH 7.4), and cells were lysed with 1 ml 0.1 N NaOH. The radioactivity in a 500 μl lysate aliquot was determined by liquid scintillation counting and a fraction of the lysate was also used for determination of protein concentration using the Lowry method (DC assay, Bio-Rad, Hercules, Calif.). Na^+-dependent transport was calculated as the difference in the radioactivity accumulated in the presence and absence of Na^+ and calculated as nmol/mg protein/min. Results are expressed as uptake relative to control samples.

For another test, the system named is GLT-1. The test can be described thus: eGFP-GLT-1-positive puncta in mouse spinal cord dorsal horn. Type of test: in vivo. How it is done:
With these in vivo data collected, further experiments were performed in the transgenic mice to more clearly define the effects of propentofylline treatment on GLT-1 and GLAST in the spinal cord. As discussed above, following in vivo testing, mice were transcardially perfused and tissue was fixed with paraformaldehyde. Lumbar spinal cord sections were identified and post-fixed in paraformaldehyde. After one week in sucrose to prevent freeze fracture, spinal cord segments were frozen in dry ice, mounted and prepared with cryostat sectioning. Sections were then subjected to immunohistochemical analysis. […] In order to quantitate the relative number of eGFP (marker for GLT-1) or DsRed (marker for GLAST) puncta in each spinal cord dorsal horn, images using a fluorescence microscope were taken with a Q-Fire cooled camera (397 ms exposure). […] An observer blind to the treatment groups was used to count the relative number of GLT-1 or GLAST positive puncta in the ipsilateral (injured) dorsal horn versus the contralateral (non-injured) dorsal horn. […] For both reporters (GLT-1, green color; GLAST, red color), diffuse, cytoplasmic and punctate, perinuclear expression was observed that overlapped with GFAP (blue color) in some, but not all cases.
Transgenic mice on a C57B1/6 background were created according to the methods previously described (Regan et al. 2006. J. Neuroscience, in press). Briefly, in order to determine where in the central nervous system GLAST is expressed, transgenic mice were created using a bacterial artificial chromosome containing the GLAST gene plus 18 kb of DNA upstream of the first exon and 60 kb downstream of the last exon. DsRed cDNA was inserted into the first exon to allow expression of DsRed instead of GLAST when the promoter is active. […]
As described previously with rats, mice were transcardially perfused with 0.1 M PBS (phosphate-buffered saline), pH 7.4, followed by 4%-paraformaldehyde in PBS on day 12 post-L5 spinal nerve transection. […] The sections were examined with a fluorescence microscope, and images were captured with a Q-Fire cooled camera. […]

[2] abbreviates: L5/propentofylline group, day 12.

For `CCCn1cnc2c1c(=O)n(CCCCC(C)=O)c(=O)n2C` [propentofylline], in test [1] (100 μM DHK for 10 minutes before substrate), the “sensitivity of increased glutamate transport to DHK inhibition” value is “sensitive to DHK inhibition”. Moreover, in test [1] (100 μM, 7 days), the “increase in glutamate uptake” value is 1.7 fold. Moreover, the “increase in Na+-dependent glutamate transport” value in test [1] (1000 μM, 7 days) is 2.1 fold. Also, the “glutamate uptake, in words” value in test [1] (7-day treated cultures) is “dose-dependent increase in glutamate uptake”. Besides, in the test with GLT-1 (setting [2]), the “eGFP-GLT-1-positive puncta in injured mice, in words” value is “reversed with propentofylline administration; also recorded: restored levels of eGFP-GLT-1-positive puncta to that of the contralateral side” and the “ipsilateral versus contralateral ratio of eGFP-GLT-1-positive puncta” value is on record as 1. Further, the “eGFP-GLT-1-positive puncta in sham mice” value in the test with GLT-1 (sham/propentofylline group) is “did not lead to further increases in GLT-1 above normal expression levels”.

The values are drawn from US20090227606A1, “Methods for Preventing or Treating Acute and Chronic Pain” (priority 2006, published 2009).
